The test system of one data set is HEK293 cells. The data set can be described thus: MTT cytotoxicity in HEK293 cells. In kind it is cell-based. The note with it: HEK293 cells, 1, 5 and 10 µM, 24 hours; FIG. 16. How it is done:
(§1) HEK293 cells and the HEK293 cells overexpressing the dementia gene PSEN1 were seeded at a density of 2x10^5 cells/well into 96-well plates containing a DMEM medium and stabilized overnight, following by treating the cells with various concentrations (1, 5, and 10 µM) of the sample (SPA1413) for 24 hours. After removal of the culture medium, a 0.5 mg/ml MTT solution was added in an amount of 100 µl to each well and incubated at 37° C. for at least one hour in an incubator. The MTT was removed and 200 µl of DMSO was added to each well to dissolve the formazan. Absorbance was read at 540 nm on an ELISA reader to determine whether or the sample was toxic to the cells.

Data set [1] has as its system HEK293 cells overexpressing the dementia gene PSEN1. The data set can be described thus: MTT cytotoxicity in HEK293 cells overexpressing PSEN1. It is filed as cell-based. Particulars: PSEN1 gene-overexpressing HEK293 cell line, 1, 5 and 10 µM, 24 hours, compared to the normal cells; FIG. 16. How it is done: as §1
A further data set relates to 5xFAD mice. The data set can be described thus: Novel object recognition test. It is filed as in vivo, mouse. Particulars: 10 mg/kg orally once a day for 1 month, between groups, FIG. 20. As to the method:
The experiment was conducted with 5X-FAD transgenic mice having Alzheimer’s disease introduced therein. The 5X FAD mouse is an animal model of Alzheimer’s disease with all the human AD-linked mutations: Swedish (K670N/ […]), Florida (1716V) and London (V7171) in APP (695) and M146L in Presenilin 1
5xFAD mice were purchased from Jackson Lab and bred in and in through mating with C57B16/SJL F1 females, based on the information provided by the supplier. Through genotyping, the mice were divided into groups of 7-9 members, including normal groups (WT) and genetically modified groups (5xFAD): 4.5-month-old 5xFAD mice (Tg) and age-matched controls (WT). To the WT or Tg groups, a vehicle or SPA1413 was orally administered at a dose of 10 mg/kg once a day for 1 month. To test whether SPA1413 has a therapeutic effect on Alzheimer’s disease, the mice in 5 groups (WT-vehicle; WT-SPA1413 5xFAD-vehicle; 5xFAD-SPA1413; and 5xFAD-donepezil) were evaluated for cognitive ability.
For a novel object recognition test, the Ethovision XT 9 system was used to examine whether an animal was interested in a new object. […] An object newly recognizable to the animals was put into the box, and the time and frequency of staying near the object were measured to determine how interested the animals were in it. […]

The values that follow come from patent US20230330059A1, “3-PHENYL-2H-CHROMENE DERIVATIVE AND PHARMACEUTICAL COMPOSITION FOR PREVENTING OR TREATING ALZHEIMER'S, CONTAINING SAME” (NEUROBIONET, INC., priority 2020, published 2023).

For the compound `Oc1ccc(C2=Cc3ccc(O)cc3OC2)cc1` [SPA1413, 3-(4-Hydroxyphenyl)-2H-chromen-7-ol], the “cell viability (MTT)” value in the data set on HEK293 cells is given as “the same as or almost similar to the normal control group”. Further, in data set [1], the “cell viability (MTT)” value is “increase in cell viability”. Further, in the data set on 5xFAD mice, the total distance result is listed as “no significant difference” and the velocity entry is “no significant difference”.
